Source: article PMC4006873 (Biochemistry, 2013)
Peptide text beside a SMILES is read from it. * marks the point of attachment. X1 = C[C@@H]1C[C@H]2[C@@H]3CCC4=CC(=O)C=C[C@]4(C)[C@@]3(F)[C@@H](O)C[C@]2(C)[C@@]1(O)C(=O)CSCCC(=O)*

Key:
[1] = biological target: T1, Gal4-GR★-VP16 (Homo sapiens, UniProt P04150, C638G); assay: GIGI in cell lysates, stably transfected U2OS; details: U2OS(GIGI) cells; for Z′-factor of GIGI assay: 1 μM vs untreated, 24 h, n = 150
T1 sequence (P04150 524-758 C638G): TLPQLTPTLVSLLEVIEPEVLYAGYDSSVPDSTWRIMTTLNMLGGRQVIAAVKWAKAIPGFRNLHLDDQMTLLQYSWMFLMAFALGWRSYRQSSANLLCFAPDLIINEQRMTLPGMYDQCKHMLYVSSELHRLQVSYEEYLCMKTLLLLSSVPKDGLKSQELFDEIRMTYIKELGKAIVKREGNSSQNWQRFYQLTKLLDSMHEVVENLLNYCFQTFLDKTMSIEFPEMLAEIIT

[2] = biological target: T2, GR★-GFP (Homo sapiens, UniProt P04150, C638G); assay: High-content imaging of GIGT in stably transfected Saos-2; type: cell-based; details: Saos-2(GIGT) cells, 30 min; for Z′-factor of GIGT assay: 1 μM vs untreated
T2 sequence (P04150 1-777 C638G): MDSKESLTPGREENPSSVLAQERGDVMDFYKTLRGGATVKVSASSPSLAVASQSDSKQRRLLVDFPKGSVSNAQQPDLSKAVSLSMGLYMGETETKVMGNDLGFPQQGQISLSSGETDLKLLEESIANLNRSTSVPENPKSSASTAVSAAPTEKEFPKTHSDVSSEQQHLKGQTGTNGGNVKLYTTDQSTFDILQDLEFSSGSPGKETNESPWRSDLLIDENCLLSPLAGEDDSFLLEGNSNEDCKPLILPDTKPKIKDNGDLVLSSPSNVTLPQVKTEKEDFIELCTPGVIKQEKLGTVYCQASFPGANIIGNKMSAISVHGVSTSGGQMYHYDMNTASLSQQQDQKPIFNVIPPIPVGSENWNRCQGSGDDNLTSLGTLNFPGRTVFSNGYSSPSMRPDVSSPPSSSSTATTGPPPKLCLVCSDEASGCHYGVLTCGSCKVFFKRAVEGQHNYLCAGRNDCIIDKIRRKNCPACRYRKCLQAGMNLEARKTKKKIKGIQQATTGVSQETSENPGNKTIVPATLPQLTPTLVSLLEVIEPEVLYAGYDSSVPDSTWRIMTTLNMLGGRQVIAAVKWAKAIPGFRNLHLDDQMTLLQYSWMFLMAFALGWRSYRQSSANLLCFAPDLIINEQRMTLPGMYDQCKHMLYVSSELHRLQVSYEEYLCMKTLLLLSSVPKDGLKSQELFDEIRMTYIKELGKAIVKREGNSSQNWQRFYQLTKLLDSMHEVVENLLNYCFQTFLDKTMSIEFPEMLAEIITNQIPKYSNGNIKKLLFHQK

[3] = biological target: rat C656G GR; details: read-out: equilibrium dissociation constant (Kd), in vitro; cited from earlier work
[4] = biological target: T2, GR★-GFP; assay: GIGT nuclear translocation, transiently transfected cells expressing GR★-GFP; type: cell-based; details: HeLa cells expressing GR★-GFP, 500 nM, 30 min

Row | Compound | Z′-factor of GIGI assay [1] | Z′-factor of GIGT assay [2] | Kd [3] | eGFP expression after treatment and cell lysis ([1]; 1 μM) | translocation ratio (TR) [4] | translocation ratio (TR) ([2]; 1 μM)
1 | CC(C)C[C@H](NC(=O)[C@H](Cc1c[nH]cn1)NC(=O)[C@H](CCCNC(=N)N)NC(=O)[C@H](CO)NC(=O)[C@H](CC(C)C)NC(=O)[C@@H](NC(=O)[C@H](Cc1ccccc1)NC(=O)[C@H](C)NC(=O)[C@H](CCCCN)NC(=O)CNC(=O)[C@H](CS)NC(=O)[C@@H](NC(=O)[C@H](CC(N)=O)NC(=O)[C@H](CS)NC(=O)[C@H](CO)NC(=O)[C@H](Cc1ccc(O)cc1)NC(=O)[C@@H](N)Cc1c[nH]c2ccccc12)C(C)C)C(C)C)C(=O)N[C@@H](CC(N)=O)C(=O)N[C@@H](CCCNC(=N)N)C(=O)N[C@@H](Cc1c[nH]cn1)C(=O)N[C@@H](CC(C)C)C(=O)N[C@@H](CCCNC(=N)N)C(=O)N[C@H](C(=O)N[C@@H](Cc1c[nH]cn1)C(=O)N[C@@H](CCCNC(=N)N)C(=O)N[C@@H](CCCNC(=N)N)C(=O)N[C@@H](C)C(=O)N[C@H](C(=O)N[C@@H](CCCCNC(=O)CCSCC(=O)[C@@]1(O)[C@H](C)C[C@H]2[C@@H]3CCC4=CC(=O)C=C[C@]4(C)[C@@]3(F)[C@@H](O)C[C@@]21C)C(N)=O)[C@@H](C)O)C(C)C [ZF5.3^Dex] (H-WYSCNVCGKAFVLSRHLNRHLRVHRRATK(X1)-NH2; N-terminus and C-terminus assumed) | 0.42 | 0.56 |  |  |  | 
2 | C[C@@H]1C[C@H]2[C@@H]3CCC4=CC(=O)C=C[C@]4(C)[C@@]3(F)[C@@H](O)C[C@]2(C)[C@@]1(O)C(=O)CO [Dex, dexamethasone] |  |  | 0.55 nM |  |  | 
3 | CC[C@H](C)[C@H](NC(=O)[C@H](CC(C)C)NC(=O)[C@H](CC(=O)O)NC(=O)[C@H](CCCNC(=N)N)NC(=O)[C@@H](NC(=O)[C@@H]1CCCN1C(=O)[C@H](C)NC(=O)[C@H](CC(=O)O)NC(=O)[C@H](CC(=O)O)NC(=O)CNC(=O)[C@@H]1CCCN1C(=O)[C@H](Cc1ccc(O)cc1)NC(=O)[C@@H](NC(=O)[C@@H]1CCCN1C(=O)[C@H](CCC(N)=O)NC(=O)[C@H](CO)NC(=O)[C@@H]1CCCN1C(=O)CN)[C@@H](C)O)C(C)C)C(=O)N[C@@H](CCCNC(=N)N)C(=O)N[C@@H](Cc1ccccc1)C(=O)N[C@@H](Cc1ccc(O)cc1)C(=O)N[C@@H](CCCNC(=N)N)C(=O)N[C@@H](CC(=O)O)C(=O)N[C@@H](CC(C)C)C(=O)N[C@@H](CCCNC(=N)N)C(=O)N[C@@H](CCCNC(=N)N)C(=O)N[C@@H](Cc1ccc(O)cc1)C(=O)N[C@@H](CC(C)C)C(=O)N[C@@H](CC(N)=O)C(=O)N[C@H](C(=O)N[C@H](C(=O)N[C@H](C(=O)N[C@@H](CCCNC(=N)N)C(=O)N[C@@H](Cc1c[nH]cn1)C(=O)N[C@@H](CCCNC(=N)N)C(=O)N[C@@H](Cc1ccc(O)cc1)C(=O)N[C@@H](CCCCNC(=O)CCSCC(=O)[C@@]1(O)[C@H](C)C[C@H]2[C@@H]3CCC4=CC(=O)C=C[C@]4(C)[C@@]3(F)[C@@H](O)C[C@@]21C)C(N)=O)[C@@H](C)O)C(C)C)C(C)C [5.3^Dex] (H-GPSQPTYPGDDAPVRDLIRFYRDLRRYLNVVTRHRYK(X1)-NH2; N-terminus and C-terminus assumed) | 0.56 | 0.54 |  | significant eGFP expression | 2.79 ± 0.39 | 4.01 ± 0.30
